Where “and” joins values, the source holds several entries; their conditions need not be identical. Identical values can stand only once.
Key:
Experiment in all cases: radiometric filter-binding kinase assay, Kinase HotSpot
Conditions in all cases: compound 0.5 µM; ATP 10 µM
CHUK (human) = CHUK (human) (UniProt O15111)
TEC (human) = TEC (human) (UniProt P42680)
AKT3 (human) = AKT3 (human) (UniProt Q9Y243)
DYRK2 (human) = DYRK2 (human) (UniProt Q92630)
PRKG1 (human) = PRKG1 (human) (UniProt Q13976)
PHKG1 (human) = PHKG1 (human) (UniProt Q16816)
PHKG1 (human), sequence (Q16816 whole entry, looked up): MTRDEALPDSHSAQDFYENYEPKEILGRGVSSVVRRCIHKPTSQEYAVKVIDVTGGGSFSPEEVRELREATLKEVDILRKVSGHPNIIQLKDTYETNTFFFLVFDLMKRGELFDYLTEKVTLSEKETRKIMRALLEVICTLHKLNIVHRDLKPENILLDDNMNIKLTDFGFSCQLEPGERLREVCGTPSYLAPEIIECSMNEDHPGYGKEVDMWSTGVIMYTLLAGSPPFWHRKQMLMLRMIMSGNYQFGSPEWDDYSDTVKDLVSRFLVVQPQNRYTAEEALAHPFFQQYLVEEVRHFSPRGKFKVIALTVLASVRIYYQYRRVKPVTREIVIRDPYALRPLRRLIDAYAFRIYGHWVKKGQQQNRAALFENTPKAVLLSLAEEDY

MLTK (human) = MLTK (human) (UniProt Q9NYL2)
RPS6KA6 KD1 KD2 (human) = RPS6KA6 KD1 KD2 (human) (UniProt Q9UK32)
RPS6KA6 KD1 KD2 (human), sequence (Q9UK32 whole entry, looked up): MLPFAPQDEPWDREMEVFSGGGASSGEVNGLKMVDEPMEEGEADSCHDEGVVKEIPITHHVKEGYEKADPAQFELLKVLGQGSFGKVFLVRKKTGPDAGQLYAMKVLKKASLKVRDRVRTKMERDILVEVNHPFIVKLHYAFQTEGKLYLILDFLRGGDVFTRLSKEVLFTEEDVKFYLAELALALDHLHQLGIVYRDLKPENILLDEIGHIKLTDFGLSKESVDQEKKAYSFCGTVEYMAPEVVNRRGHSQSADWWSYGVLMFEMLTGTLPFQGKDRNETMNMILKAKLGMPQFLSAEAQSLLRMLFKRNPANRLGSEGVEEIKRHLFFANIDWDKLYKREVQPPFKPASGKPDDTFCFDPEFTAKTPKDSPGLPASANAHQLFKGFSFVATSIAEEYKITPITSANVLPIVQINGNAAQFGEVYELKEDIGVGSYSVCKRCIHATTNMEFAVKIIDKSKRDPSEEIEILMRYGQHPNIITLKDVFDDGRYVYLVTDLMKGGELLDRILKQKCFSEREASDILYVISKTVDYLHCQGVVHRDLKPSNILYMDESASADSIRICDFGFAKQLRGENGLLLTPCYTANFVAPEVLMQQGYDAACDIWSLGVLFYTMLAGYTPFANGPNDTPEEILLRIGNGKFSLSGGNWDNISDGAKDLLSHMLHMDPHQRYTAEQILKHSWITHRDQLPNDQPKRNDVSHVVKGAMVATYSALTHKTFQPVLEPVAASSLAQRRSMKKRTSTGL

NEK6 (human) = NEK6 (human) (UniProt Q9HC98)
MAP4K5 (human) = MAP4K5 (human) (UniProt Q9Y4K4)
CLK2 (human) = CLK2 (human) (UniProt P49760)
RPS6KA5 KD2 (human) = RPS6KA5 KD2 (human) (UniProt O75582)
VRK1 (human) = VRK1 (human) (UniProt Q99986)
MAPK8 (human) = MAPK8 (human) (UniProt P45983)
ULK2 (human) = ULK2 (human) (UniProt Q8IYT8)
MAP3K5 (human) = MAP3K5 (human) (UniProt Q99683)
TGFBR1 (human) = TGFBR1 (human) (UniProt P36897)
TGFBR1 (human), sequence (P36897 whole entry, looked up): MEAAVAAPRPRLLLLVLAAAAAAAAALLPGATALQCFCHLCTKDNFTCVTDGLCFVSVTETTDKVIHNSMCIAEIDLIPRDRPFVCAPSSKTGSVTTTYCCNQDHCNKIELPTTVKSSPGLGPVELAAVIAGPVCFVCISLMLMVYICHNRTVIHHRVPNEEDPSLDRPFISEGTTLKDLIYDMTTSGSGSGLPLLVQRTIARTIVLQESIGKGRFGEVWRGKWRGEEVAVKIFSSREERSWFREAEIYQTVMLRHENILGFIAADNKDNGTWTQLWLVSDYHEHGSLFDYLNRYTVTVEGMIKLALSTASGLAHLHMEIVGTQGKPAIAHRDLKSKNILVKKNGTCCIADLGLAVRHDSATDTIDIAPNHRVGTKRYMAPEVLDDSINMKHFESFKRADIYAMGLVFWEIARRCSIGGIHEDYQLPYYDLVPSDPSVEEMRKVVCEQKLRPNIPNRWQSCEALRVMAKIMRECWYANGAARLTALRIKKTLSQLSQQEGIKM

EPHB4 (human) = EPHB4 (human) (UniProt P54760)
CLK3 (human) = CLK3 (human) (UniProt P49761)
NTRK3 (human) = NTRK3 (human) (UniProt Q16288)
PAK3 (human) = PAK3 (human) (UniProt O75914)
CSNK1G1 (human) = CSNK1G1 (human) (UniProt Q9HCP0)
ACVR1 (human) = ACVR1 (human) (UniProt Q04771)
HCK (human) = HCK (human) (UniProt P08631)
PAK4 (human) = PAK4 (human) (UniProt O96013)
INSRR (human) = INSRR (human) (UniProt P14616)
INSRR (human), sequence (P14616 whole entry, looked up): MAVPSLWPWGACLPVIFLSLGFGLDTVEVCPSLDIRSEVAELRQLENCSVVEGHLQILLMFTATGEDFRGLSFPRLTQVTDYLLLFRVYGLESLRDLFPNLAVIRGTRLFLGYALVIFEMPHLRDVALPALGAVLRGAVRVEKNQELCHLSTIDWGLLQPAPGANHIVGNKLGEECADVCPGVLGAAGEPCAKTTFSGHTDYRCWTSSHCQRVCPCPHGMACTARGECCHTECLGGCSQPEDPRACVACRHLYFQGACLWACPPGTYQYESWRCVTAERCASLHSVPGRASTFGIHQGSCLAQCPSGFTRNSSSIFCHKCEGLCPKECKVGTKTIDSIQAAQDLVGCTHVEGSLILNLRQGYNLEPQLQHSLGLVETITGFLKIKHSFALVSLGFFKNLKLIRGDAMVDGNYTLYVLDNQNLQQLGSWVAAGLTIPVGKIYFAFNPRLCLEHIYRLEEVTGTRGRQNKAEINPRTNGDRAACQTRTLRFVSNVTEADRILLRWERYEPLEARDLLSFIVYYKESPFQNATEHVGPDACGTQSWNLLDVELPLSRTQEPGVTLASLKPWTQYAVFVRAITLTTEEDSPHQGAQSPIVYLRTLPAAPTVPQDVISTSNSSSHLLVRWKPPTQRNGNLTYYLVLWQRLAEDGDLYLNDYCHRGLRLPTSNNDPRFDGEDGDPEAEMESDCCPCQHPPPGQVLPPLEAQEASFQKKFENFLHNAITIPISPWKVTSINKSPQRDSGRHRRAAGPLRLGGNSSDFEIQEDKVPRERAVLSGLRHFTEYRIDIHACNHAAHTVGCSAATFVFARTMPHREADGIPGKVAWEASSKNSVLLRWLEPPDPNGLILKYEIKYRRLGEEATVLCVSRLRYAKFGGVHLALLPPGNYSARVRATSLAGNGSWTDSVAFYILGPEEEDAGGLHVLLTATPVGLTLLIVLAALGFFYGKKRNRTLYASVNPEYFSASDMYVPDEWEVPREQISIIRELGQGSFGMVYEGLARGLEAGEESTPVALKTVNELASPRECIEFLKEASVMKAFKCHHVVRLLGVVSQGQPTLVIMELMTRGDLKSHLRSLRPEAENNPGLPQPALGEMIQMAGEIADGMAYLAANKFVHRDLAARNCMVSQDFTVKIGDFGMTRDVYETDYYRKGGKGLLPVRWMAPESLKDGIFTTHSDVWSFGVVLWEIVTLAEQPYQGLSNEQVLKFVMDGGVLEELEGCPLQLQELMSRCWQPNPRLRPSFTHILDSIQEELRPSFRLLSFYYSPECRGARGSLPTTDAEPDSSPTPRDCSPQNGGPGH

RET (human) = RET (human) (UniProt P07949)
JAK2 JH1 JH2 (human) = JAK2 JH1 JH2 (human) (UniProt O60674)
LIMK1 (human) = LIMK1 (human) (UniProt P53667)
EPHB1 (human) = EPHB1 (human) (UniProt P54762)
PTK2B (human) = PTK2B (human) (UniProt Q14289)
LYN (human) = LYN (human) (UniProt P07948)
ULK1 (human) = ULK1 (human) (UniProt O75385)
PLK3 (human) = PLK3 (human) (UniProt Q9H4B4)
MAP3K10 (human) = MAP3K10 (human) (UniProt Q02779)
MARK3 (human) = MARK3 (human) (UniProt P27448)
MARK3 (human), sequence (P27448 whole entry, looked up): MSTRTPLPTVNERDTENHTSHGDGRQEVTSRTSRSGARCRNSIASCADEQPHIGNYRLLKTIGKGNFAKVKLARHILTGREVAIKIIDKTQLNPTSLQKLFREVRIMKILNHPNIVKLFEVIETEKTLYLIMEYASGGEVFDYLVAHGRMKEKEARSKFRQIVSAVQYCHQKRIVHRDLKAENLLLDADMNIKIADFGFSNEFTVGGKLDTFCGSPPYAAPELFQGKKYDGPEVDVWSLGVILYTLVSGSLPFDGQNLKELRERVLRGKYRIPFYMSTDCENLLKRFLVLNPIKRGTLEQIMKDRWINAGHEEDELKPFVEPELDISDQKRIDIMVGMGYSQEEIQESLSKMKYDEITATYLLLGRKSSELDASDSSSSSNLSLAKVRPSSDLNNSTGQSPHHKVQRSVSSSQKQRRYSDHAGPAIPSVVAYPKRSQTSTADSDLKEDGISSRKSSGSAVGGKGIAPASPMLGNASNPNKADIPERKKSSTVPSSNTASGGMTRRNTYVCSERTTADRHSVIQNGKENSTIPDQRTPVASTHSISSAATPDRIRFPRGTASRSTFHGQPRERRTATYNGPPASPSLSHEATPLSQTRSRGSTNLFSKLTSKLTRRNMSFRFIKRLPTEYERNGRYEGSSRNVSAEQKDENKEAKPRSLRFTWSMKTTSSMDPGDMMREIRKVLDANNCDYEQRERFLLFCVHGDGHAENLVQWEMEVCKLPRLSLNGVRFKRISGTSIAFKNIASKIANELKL

TAOK1 (human) = TAOK1 (human) (UniProt Q7L7X3)
ERBB2 (human) = ERBB2 (human) (UniProt P04626)
[1] = biological target: JAK1 JH1 catalytic (human) (UniProt P23458)
CLK1 (human) = CLK1 (human) (UniProt P49759)
CDK3 CCNE1 (human) = CDK3 CCNE1 (human) (UniProt Q00526+P24864)
NEK2 (human) = NEK2 (human) (UniProt P51955)

DYRK2 (human), sequence (Q92630 whole entry, looked up): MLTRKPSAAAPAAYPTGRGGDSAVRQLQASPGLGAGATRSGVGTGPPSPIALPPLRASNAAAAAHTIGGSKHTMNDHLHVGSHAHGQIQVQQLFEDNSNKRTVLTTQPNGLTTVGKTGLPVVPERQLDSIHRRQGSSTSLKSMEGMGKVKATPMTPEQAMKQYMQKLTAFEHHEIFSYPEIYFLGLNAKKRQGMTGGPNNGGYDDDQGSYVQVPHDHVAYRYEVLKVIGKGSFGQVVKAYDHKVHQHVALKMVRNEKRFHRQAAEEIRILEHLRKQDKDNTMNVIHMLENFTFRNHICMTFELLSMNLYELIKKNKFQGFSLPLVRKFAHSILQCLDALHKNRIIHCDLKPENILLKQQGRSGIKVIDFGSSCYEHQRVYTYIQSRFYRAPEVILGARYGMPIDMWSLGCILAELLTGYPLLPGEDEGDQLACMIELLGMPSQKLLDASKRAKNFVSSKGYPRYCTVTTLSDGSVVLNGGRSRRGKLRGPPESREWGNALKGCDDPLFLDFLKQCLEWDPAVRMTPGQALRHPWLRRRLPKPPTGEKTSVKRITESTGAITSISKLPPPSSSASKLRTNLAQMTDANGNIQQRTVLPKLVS
TEC (human), sequence (P42680 whole entry, looked up): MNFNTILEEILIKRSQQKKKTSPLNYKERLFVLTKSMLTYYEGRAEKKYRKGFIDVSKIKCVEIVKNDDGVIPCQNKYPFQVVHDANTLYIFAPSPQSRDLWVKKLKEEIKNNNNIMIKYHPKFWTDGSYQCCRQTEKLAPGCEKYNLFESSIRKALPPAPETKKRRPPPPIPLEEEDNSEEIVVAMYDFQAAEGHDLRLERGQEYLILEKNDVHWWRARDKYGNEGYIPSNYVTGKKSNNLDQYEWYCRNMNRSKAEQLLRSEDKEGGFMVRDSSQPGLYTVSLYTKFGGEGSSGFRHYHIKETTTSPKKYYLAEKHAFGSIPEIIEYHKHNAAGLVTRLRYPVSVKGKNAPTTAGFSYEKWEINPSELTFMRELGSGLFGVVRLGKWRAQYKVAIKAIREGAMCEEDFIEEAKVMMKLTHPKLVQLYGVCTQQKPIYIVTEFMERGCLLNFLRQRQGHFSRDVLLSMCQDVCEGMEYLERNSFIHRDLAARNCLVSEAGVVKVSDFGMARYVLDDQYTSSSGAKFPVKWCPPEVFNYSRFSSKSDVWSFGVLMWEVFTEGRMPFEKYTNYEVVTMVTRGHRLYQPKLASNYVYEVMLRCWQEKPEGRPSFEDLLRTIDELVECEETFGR

`CC(C)(C)c1nc2c3ccc(F)cc3c3c(=O)[nH]ccc3c2[nH]1` was tested, and the residual activity (CHUK (human)) was 102%, the residual activity (TEC (human)) was 106% and the residual activity (AKT3 (human)) was 76.4%. For the same molecule, the residual activity (DYRK2 (human)) was 62.5%, the residual activity (PRKG1 (human)) was 40.2% and 52.3% and the residual activity (PHKG1 (human)) was 34.5%. For the same molecule, the residual activity (MLTK (human)) was 78.1%, the residual activity (RPS6KA6 KD1 KD2 (human)) was 33.9% and the residual activity (NEK6 (human)) was 82.5%. For the same molecule, the residual activity (MAP4K5 (human)) was 65.8%, the residual activity (CLK2 (human)) was 93.9% and the residual activity (RPS6KA5 KD2 (human)) was 58%. It also gave a residual activity (VRK1 (human)) of 82.2%, a residual activity (MAPK8 (human)) of 73.7% and a residual activity (ULK2 (human)) of 41.5%. It also gave a residual activity (MAP3K5 (human)) of 84.4%, a residual activity (TGFBR1 (human)) of 102% and a residual activity (EPHB4 (human)) of 88.2%. The residual activity (CLK3 (human)) was 50.5%, the residual activity (NTRK3 (human)) was 6.81% and the residual activity (PAK3 (human)) was 90.1%. For the same molecule, the residual activity (CSNK1G1 (human)) was 96.5%, the residual activity (ACVR1 (human)) was 135% and the residual activity (HCK (human)) was 84.8%. The residual activity (PAK4 (human)) was 105%, the residual activity (INSRR (human)) was 75.2% and the residual activity (RET (human)) was 18.3%. The residual activity (JAK2 JH1 JH2 (human)) was 1.37%, the residual activity (LIMK1 (human)) was 73.7% and the residual activity (EPHB1 (human)) was 94.9%. The residual activity (PTK2B (human)) was 48.4%, the residual activity (LYN (human)) was 101% and 95.9% and the residual activity (ULK1 (human)) was 12.8%. The residual activity (PLK3 (human)) was 11%, the residual activity (MAP3K10 (human)) was 89.7% and the residual activity (MARK3 (human)) was 55.9%. The residual activity (TAOK1 (human)) was 86.9%, the residual activity (ERBB2 (human)) was 109% and the residual activity [1] was 2.54%. For the same molecule, the residual activity (CLK1 (human)) was 81.6% and the residual activity (CDK3 CCNE1 (human)) was 92.1%.

With `O=c1cc(N2CCNCC2)oc2c(-c3ccccc3)cccc12` the residual activity (CHUK (human)) was 103%, the residual activity (TEC (human)) was 99.8% and the residual activity (AKT3 (human)) was 102%. The residual activity (DYRK2 (human)) was 96.8%, the residual activity (PRKG1 (human)) was 100% and 102% and the residual activity (PHKG1 (human)) was 90.7%. For the same molecule, the residual activity (MLTK (human)) was 103%, the residual activity (RPS6KA6 KD1 KD2 (human)) was 99% and the residual activity (NEK6 (human)) was 105%. It also gave a residual activity (CLK2 (human)) of 100%, a residual activity (NEK2 (human)) of 86% and a residual activity (RPS6KA5 KD2 (human)) of 99.1%. For the same molecule, the residual activity (VRK1 (human)) was 92.1%, the residual activity (MAPK8 (human)) was 89.3% and the residual activity (ULK2 (human)) was 108%. It also gave a residual activity (MAP3K5 (human)) of 106%, a residual activity (TGFBR1 (human)) of 97.3% and a residual activity (EPHB4 (human)) of 101%. For the same molecule, the residual activity (CLK3 (human)) was 109%, the residual activity (NTRK3 (human)) was 99.8% and the residual activity (PAK3 (human)) was 99.8%. It also gave a residual activity (CSNK1G1 (human)) of 103%, a residual activity (ACVR1 (human)) of 90.3% and a residual activity (HCK (human)) of 93.7%. The residual activity (PAK4 (human)) was 81.1%, the residual activity (INSRR (human)) was 89.2% and the residual activity (RET (human)) was 106%. The residual activity (JAK2 JH1 JH2 (human)) was 104%, the residual activity (LIMK1 (human)) was 108% and the residual activity (EPHB1 (human)) was 94.8%. For the same molecule, the residual activity (PTK2B (human)) was 88.3%, the residual activity (LYN (human)) was 101% and 95.8% and the residual activity (ULK1 (human)) was 107%. For the same molecule, the residual activity (PLK3 (human)) was 104%, the residual activity (MAP3K10 (human)) was 87.9% and the residual activity (MARK3 (human)) was 88.8%. It also gave a residual activity (TAOK1 (human)) of 90.8%, a residual activity (ERBB2 (human)) of 95.5% and a residual activity [1] of 108%. The residual activity (CLK1 (human)) was 102% and the residual activity (CDK3 CCNE1 (human)) was 96.9%.

With `O=C(Nc1ccc(Cl)cc1)c1ccccc1NCc1ccncc1` the residual activity (CHUK (human)) was 104%, the residual activity (TEC (human)) was 134% and the residual activity (AKT3 (human)) was 97.9%. The residual activity (DYRK2 (human)) was 96%, the residual activity (PRKG1 (human)) was 86.8% and 92.3% and the residual activity (PHKG1 (human)) was 94.2%. For the same molecule, the residual activity (MLTK (human)) was 86%, the residual activity (RPS6KA6 KD1 KD2 (human)) was 104% and the residual activity (NEK6 (human)) was 97.1%. It also gave a residual activity (MAP4K5 (human)) of 95.8%, a residual activity (CLK2 (human)) of 91.8% and a residual activity (NEK2 (human)) of 88.4%. It also gave a residual activity (RPS6KA5 KD2 (human)) of 92.5%, a residual activity (VRK1 (human)) of 104% and a residual activity (MAPK8 (human)) of 109%. For the same molecule, the residual activity (ULK2 (human)) was 104%, the residual activity (TGFBR1 (human)) was 100% and the residual activity (EPHB4 (human)) was 89.6%. For the same molecule, the residual activity (CLK3 (human)) was 98.1%, the residual activity (NTRK3 (human)) was 97% and the residual activity (PAK3 (human)) was 95.5%. It also gave a residual activity (CSNK1G1 (human)) of 110%, a residual activity (ACVR1 (human)) of 97.2% and a residual activity (HCK (human)) of 101%. For the same molecule, the residual activity (PAK4 (human)) was 90.6%, the residual activity (INSRR (human)) was 96.1% and the residual activity (RET (human)) was 58.9%. It also gave a residual activity (JAK2 JH1 JH2 (human)) of 96.5%, a residual activity (LIMK1 (human)) of 83.4% and a residual activity (EPHB1 (human)) of 90.2%. For the same molecule, the residual activity (PTK2B (human)) was 89.3%, the residual activity (LYN (human)) was 75.1% and 93.7% and the residual activity (ULK1 (human)) was 86.9%. It also gave a residual activity (PLK3 (human)) of 98.5%, a residual activity (MAP3K10 (human)) of 104% and a residual activity (MARK3 (human)) of 93.1%. It also gave a residual activity (TAOK1 (human)) of 110%, a residual activity (ERBB2 (human)) of 98.7% and a residual activity [1] of 91.8%. For the same molecule, the residual activity (CLK1 (human)) was 102% and the residual activity (CDK3 CCNE1 (human)) was 87.4%.
